In one experiment the target is T1, cPLA2 (Homo sapiens, UniProt P47712).
T1 sequence (P47712 1-749): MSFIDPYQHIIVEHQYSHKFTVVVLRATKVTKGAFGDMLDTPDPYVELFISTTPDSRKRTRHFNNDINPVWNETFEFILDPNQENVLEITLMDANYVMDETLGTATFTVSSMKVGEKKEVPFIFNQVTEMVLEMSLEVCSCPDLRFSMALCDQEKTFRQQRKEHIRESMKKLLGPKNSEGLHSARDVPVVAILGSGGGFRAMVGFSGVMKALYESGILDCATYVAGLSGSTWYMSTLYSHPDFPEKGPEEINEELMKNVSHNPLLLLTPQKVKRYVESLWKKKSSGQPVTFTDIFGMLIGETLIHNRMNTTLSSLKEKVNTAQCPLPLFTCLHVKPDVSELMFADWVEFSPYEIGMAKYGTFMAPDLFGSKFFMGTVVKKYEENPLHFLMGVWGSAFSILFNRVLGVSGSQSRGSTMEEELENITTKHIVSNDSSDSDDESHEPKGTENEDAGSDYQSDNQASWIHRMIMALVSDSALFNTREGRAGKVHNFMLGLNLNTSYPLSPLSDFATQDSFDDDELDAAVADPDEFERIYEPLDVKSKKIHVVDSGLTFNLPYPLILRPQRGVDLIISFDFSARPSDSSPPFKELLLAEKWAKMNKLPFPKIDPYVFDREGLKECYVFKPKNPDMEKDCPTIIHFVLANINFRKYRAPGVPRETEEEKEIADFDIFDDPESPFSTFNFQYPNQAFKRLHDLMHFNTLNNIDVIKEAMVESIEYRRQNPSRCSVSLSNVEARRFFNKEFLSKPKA
The experiment in a line: cPLA2 inhibitory activity. It is filed as biochemical. As to conditions: 1-palmitoyl-2-[14C]-arachidonoyl-sn-glycero-3-phosphocholine liposomes, 15 min at 37° C. On the procedure:
The compounds of the present invention were tested for the cPLA2 inhibitory activity according to the method disclosed in […]. Roberts, […], and J. E. Putnam, J. Biol. Chem., 1991, 266, 5268-5272 as outlined below. […] The reaction mixture includes 50 mM HEPES buffer (pH 7.5), 1 mM calcium chloride, 150 mM sodium chloride, 0.1 mg/ml bovine serum albumin, and 1.7 mM dithiothreitol. To the reaction mixture was added the compound of the present invention and the substrate solution. The reaction was allowed to start by adding an enzyme and continued for 15 min at 37° C. The fatty acids released by the reaction were extracted by the method described in V. P. Dole, and H. Meinertz, J. Biol. Chem., 1960, 235, 2595-2599 and its radiation activity was measured on a liquid scintillation counter. Control was obtained by conducting the experiment in the same manner except that a compound of the present invention was not added.
Broadly, the IC50 is the concentration needed to halve the response being measured. Read a high IC50 as weaker potency. In turn, `CC(C)CN(C1CC(CNC(=O)c2ccc(C=C3SC(=O)NC3=O)s2)N(C(=O)c2ccccc2C(=O)c2ccc(F)cc2F)C1)C(c1ccccc1)c1ccccc1` (centres unmarked) [Compound A-12] registered an IC50 of 2.1 nM.

On to `Cc1cc(C)cc(C(SC2CC(CNC(=O)c3ccc(C=C4SC(=O)NC4=O)cc3)N(C(=O)c3ccccc3C(=O)c3ccc(F)cc3F)C2)(c2ccccc2)c2ccccc2)c1` (centres unmarked) [Compound B-6], for which the IC50 worked out at 1.3 nM.

Turning to `CC(C)CN(C1CC(CNC(=O)c2ccc(C=C3SC(=O)NC3=O)cc2)N(C(=O)c2c(F)cccc2C(=O)c2ccc(F)cc2F)C1)C(c1ccccc1)c1ccccc1` (centres unmarked) [Compound A-7], half-maximal inhibition (IC50) was put at 5.1 nM.

In turn, `CC(C)CN(C1CC(CNC(=O)c2ccc(C=C3SC(=O)NC3=O)cc2)N(C(=O)c2cccc(F)c2C(=O)c2ccc(F)cc2F)C1)C(c1ccccc1)c1ccccc1` (centres unmarked) [Compound A-6] gave an IC50 of 4.5 nM.

On to `COc1ccc(C(SC2CC(CNC(=O)c3ccc(C=C4SC(=O)NC4=O)cc3)N(C(=O)c3ccccc3C(=O)c3ccc(F)cc3F)C2)(c2ccccc2)c2ccc(OC)cc2)cc1` (centres unmarked) [Compound B-3], for which half-maximal inhibition (IC50) required 9 nM.

`COc1ccc(C(=O)c2ccc(F)cc2F)c(C(=O)N2CC(N(CC(C)C)C(c3ccccc3)c3ccccc3)CC2CNC(=O)c2ccc(C=C3SC(=O)NC3=O)cc2)c1` (centres unmarked) [Compound A-10]: the IC50 came out at 29 nM.

The molecule `CC(C)CN(C1CC(CNC(=O)c2ccc(C=C3SC(=O)NC3=O)cc2)N(C(=O)c2ccccc2C(=O)c2c(F)cccc2F)C1)C(c1ccccc1)c1ccccc1` (centres unmarked) [Compound A-5] had an IC50 of 7.4 nM.

`O=C1NC(=O)C(=Cc2ccc(C(=O)NCC3CC(SCc4c(-c5ccccc5)cccc4-c4ccccc4)CN3C(=O)c3ccccc3C(=O)c3ccc(F)cc3F)cc2)S1` (centres unmarked) [Compound B-2] showed an IC50 of 20 nM.

Turning to `O=C1NC(=O)C(=Cc2ccc(C(=O)NCC3CC(SC(c4ccccc4)(c4ccccc4)c4cc(F)cc(F)c4)CN3C(=O)c3ccccc3C(=O)c3ccc(F)cc3F)cc2)S1` (centres unmarked) [Compound B-5], half-maximal inhibition (IC50) was put at 2.7 nM.

Consider `CC(C)CN(C(c1ccccc1)c1ccccc1)[C@@H]1C[C@@H](CNC(=O)c2ccc(/C=C3\SC(=O)NC3=O)cc2)N(C(=O)c2ccccc2C(=O)c2ccccc2)C1` [Compound A-1], for which the IC50 was 33 nM.

In the case of `O=C(/C=C/c1ccc(/C=C2\SC(=O)NC2=O)cc1)NC[C@@H]1C[C@@H](N(Cc2ccccc2)C(c2ccccc2)c2ccccc2)CN1C(=O)c1ccccc1C(=O)c1ccc(F)cc1F` [Compound A-17], the IC50 came to 3.7 nM.

As to `CC(C)CN(C1CC(CNC(=O)c2ccc(C=C3SC(=O)NC3=O)cc2)N(C(=O)c2ccccc2C(=O)c2ccccc2F)C1)C(c1ccccc1)c1ccccc1` (centres unmarked) [Compound A-2], the IC50 stood at 14 nM.

`CC(C)CN(Cc1ccccc1-c1ccccc1)[C@@H]1C[C@@H](CNC(=O)/C=C/c2ccc(/C=C3\SC(=O)NC3=O)cc2)N(C(=O)c2ccccc2C(=O)c2ccc(F)cc2F)C1` [Compound A-14] came in with an IC50 of 1.8 nM.

Molecule `O=C1NC(=O)C(=Cc2ccc(C(=O)NCC3CC(SC(c4ccccc4)(c4cccc(F)c4)c4cccc(F)c4)CN3C(=O)c3ccccc3C(=O)c3ccc(F)cc3F)cc2)S1` (centres unmarked) [Compound B-4] returned an IC50 of 2.6 nM.

`CC(C)CN(C1CC(CNC(=O)c2ccc(C=C3SC(=O)NC3=O)cc2)N(C(=O)c2ccc(F)cc2C(=O)c2ccc(F)cc2F)C1)C(c1ccccc1)c1ccccc1` (centres unmarked) [Compound A-8]: the IC50 worked out at 5 nM.

The molecule `CC(C)CN(C1CC(CNC(=O)c2ccc(C=C3SC(=O)NC3=O)cc2)N(C(=O)c2cc(F)ccc2C(=O)c2ccc(F)cc2F)C1)C(c1ccccc1)c1ccccc1` (centres unmarked) [Compound A-9] showed an IC50 of 2 nM.

`CC(C)CN(C1CC(CNC(=O)c2ccc(C=C3SC(=O)NC3=O)cc2)N(C(=O)c2cc(Cl)ccc2C(=O)c2ccc(F)cc2F)C1)C(c1ccccc1)c1ccccc1` (centres unmarked) [Compound A-11] displayed an IC50 of 5.2 nM.

In the case of `CC(C)CN(C1CC(CNC(=O)c2ccc(C=C3SC(=O)NC3=O)cc2)N(C(=O)c2ccccc2C(=O)c2cccc(F)c2)C1)C(c1ccccc1)c1ccccc1` (centres unmarked) [Compound A-3], the IC50 came to 94 nM.

The same experiment, now with this note: 0.25 h; Table 10; same assay.
The molecule `O=C(C=Cc1ccc(C=C2SC(=O)NC2=O)cc1)NCC1CC(SCc2c(-c3ccccc3)cccc2-c2ccccc2)CN1C(=O)c1ccccc1C(=O)c1ccc(F)cc1F` (centres unmarked) [Compound B-10] showed an IC60 of 5.6 nM.

Regarding `O=C(C=Cc1ccc(C=C2SC(=O)NC2=O)cc1)NCC1CC(SC(c2ccccc2)(c2ccccc2)c2ccccc2)CN1C(=O)c1ccccc1C(=O)c1ccc(F)cc1F` (centres unmarked) [Compound B-9], the IC60 amounted to 0.6 nM.

As to `Cc1cccc(C(SC2CC(CNC(=O)c3ccc(C=C4SC(=O)NC4=O)cc3)N(C(=O)c3ccccc3C(=O)c3ccc(F)cc3F)C2)(c2ccccc2)c2cccc(C)c2)c1` (centres unmarked) [Compound B-7], the IC60 was 1.4 nM.

In turn, `Cc1ccccc1C(SC1CC(CNC(=O)C=Cc2ccc(C=C3SC(=O)NC3=O)cc2)N(C(=O)c2ccccc2C(=O)c2ccc(F)cc2F)C1)(c1ccccc1)c1ccccc1` (centres unmarked) [Compound B-15] yielded an IC60 of 1.2 nM.

For `O=C1NC(=O)/C(=C/c2ccc(/C=C/CNC(=O)[C@@H]3C[C@@H](SC(c4ccccc4)(c4ccccc4)c4ccccc4)CN3C(=O)c3ccccc3C(=O)c3ccc(F)cc3F)cc2)S1` [Compound C-3], the IC60 stood at 5.4 nM.

Molecule `Cc1ccc(C(SC2CC(CNC(=O)C=Cc3ccc(C=C4SC(=O)NC4=O)cc3)N(C(=O)c3ccccc3C(=O)c3ccc(F)cc3F)C2)(c2ccccc2)c2ccccc2)cc1` (centres unmarked) [Compound B-13] yielded an IC60 of 2 nM.

For `O=C(C=Cc1ccc(CC2SC(=O)NC2=O)cc1)NCC1CC(SC(c2ccccc2)(c2ccccc2)c2ccccc2)CN1C(=O)c1ccccc1C(=O)c1ccc(F)cc1F` (centres unmarked) [Compound B-20], the IC60 amounted to 1.4 nM.

In turn, `O=C(C=Cc1ccc(C=C2SC(=O)NC2=O)cc1)NCC1CC(SC(c2ccccc2)(c2ccccc2)c2ccc(F)cc2)CN1C(=O)c1ccccc1C(=O)c1ccc(F)cc1F` (centres unmarked) [Compound B-25] returned an IC60 of 0.43 nM.

As to `O=C(C=Cc1ccc(C=C2SC(=O)NC2=O)cc1)NCC1CC(SC(c2ccc(Cl)cc2)(c2ccc(Cl)cc2)c2ccc(Cl)cc2)CN1C(=O)c1ccccc1C(=O)c1ccc(F)cc1F` (centres unmarked) [Compound B-17], the IC60 turned out to be 0.63 nM.

Consider `O=C(C=Cc1ccc(C=C2SC(=O)NC2=O)cc1)NCC1CC(SC(c2ccc(F)cc2)(c2ccc(F)cc2)c2ccc(F)cc2)CN1C(=O)c1ccccc1C(=O)c1ccc(F)cc1F` (centres unmarked) [Compound B-14], for which the IC60 was determined as 1.2 nM.

`COc1ccc(C(SC2CC(CNC(=O)C=Cc3ccc(C=C4SC(=O)NC4=O)cc3)N(C(=O)c3ccccc3C(=O)c3ccc(F)cc3F)C2)(c2ccccc2)c2ccc(OC)cc2)cc1` (centres unmarked) [Compound B-12] yielded an IC60 of 2 nM.

For `CC(C)c1cccc(C(SC2CC(CNC(=O)C=Cc3ccc(C=C4SC(=O)NC4=O)cc3)N(C(=O)c3ccccc3C(=O)c3ccc(F)cc3F)C2)(c2ccccc2)c2ccccc2)c1` (centres unmarked) [Compound B-18], the IC60 turned out to be 0.26 nM.

Turning to `O=C(C=Cc1ccc(C=C2SC(=O)NC2=O)cc1)NCC1CC(SC(c2ccccc2)(c2ccccc2)c2cccs2)CN1C(=O)c1ccccc1C(=O)c1ccc(F)cc1F` (centres unmarked) [Compound B-19], the IC60 came out at 2.9 nM.

`O=C1NC(=O)/C(=C/c2ccc(C(=O)NC[C@@H]3C[C@@H](OCc4ccccc4-c4ccccc4)CN3C(=O)c3ccccc3C(=O)c3ccc(F)cc3F)s2)S1` [Compound C-1] yielded an IC60 of 24 nM.

`O=C(C=Cc1ccc(C=C2SC(=O)NC2=O)cc1)NCC1CC(SC(c2ccccc2)(c2ccccc2)c2ccccc2F)CN1C(=O)c1ccccc1C(=O)c1ccc(F)cc1F` (centres unmarked) [Compound B-23] gave an IC60 of 0.52 nM.

The molecule `Cc1cccc(C(SC2CC(CNC(=O)C=Cc3ccc(C=C4SC(=O)NC4=O)cc3)N(C(=O)c3ccccc3C(=O)c3ccc(F)cc3F)C2)(c2ccccc2)c2ccccc2)c1` (centres unmarked) [Compound B-16] registered an IC60 of 1 nM.

Take `O=C(/C=C/c1ccc(/C=C2\SC(=O)NC2=O)cc1)NC[C@@H]1C[C@@H](Oc2ccccc2C(c2ccccc2)c2ccccc2)CN1C(=O)c1ccccc1C(=O)c1ccc(F)cc1F` [Compound C-2]: the IC60 came to 3.8 nM.

Molecule `Cc1cccc(C(SC2CC(CNC(=O)C=Cc3ccc(C=C4SC(=O)NC4=O)cc3)N(C(=O)c3ccccc3C(=O)c3ccc(F)cc3F)C2)(c2ccccc2)c2cccc(C)c2)c1` (centres unmarked) [Compound B-21] displayed an IC60 of 0.27 nM.

The molecule `O=C1NC(=O)C(Cc2ccc(C(=O)NCC3CC(SC(c4ccccc4)(c4ccccc4)c4ccccc4)CN3C(=O)c3ccccc3C(=O)c3ccc(F)cc3F)cc2)S1` (centres unmarked) [Compound B-8] came in with an IC60 of 1.2 nM.

`COc1ccc(C(SC2CC(CNC(=O)C=Cc3ccc(C=C4SC(=O)NC4=O)cc3)N(C(=O)c3ccccc3C(=O)c3ccc(F)cc3F)C2)(c2ccccc2)c2ccccc2)cc1` (centres unmarked) [Compound B-11] returned an IC60 of 1.2 nM.

The record behind these values is patent publication US6924301B1, “Composition for treating or preventing arrhythmia” (Shionogi & Co., Ltd., priority 1999, dated 2005).
